The values below come from US20140155445A1, “Compounds and Methods for Treating Cancer and Diseases of the Central Nervous System” (Osta Biotechnologies Inc., priority 2007, published 2014).

In data set [1] the test system is human metastatic prostate cancer PC-3M cells. Description: Orthotopic PC-3M prostate cancer model in SCID mice. In kind it is in vivo. The source says: PC-3 & PC-3M (human prostate carcinoma). The PC-3 human prostate cancer cell line was originally obtained from the American Type Culture Collection (Rockville, Md.). The PC-3M cell line was kindly provided by Dr. Issac (MD Anderson Cancer Center). This cell variant was derived from a liver metastasis produced by the parental PC-3 cells growing in the spleen of a nude mouse [Pettaway C A, Pathak S, Greene G, et al. Selection of highly metastatic variants of different human prostate carcinomas utilizing orthotopic implantation in nude mice.
Male SCID mice were housed in laminar flow under specific pathogen-free conditions and used at 8-9 weeks of age. Animals were maintained in the LDI facilities approved by the Laboratory Animal Care in accordance with current Canadian regulations and standards for the use of animals for research.
Mice were anesthesized with isofluorane given by inhalation and placed in a supine position. […] A low midline incision was made and the prostate was exposed. Fifty microliters of HBSS containing 1×10^6 cells was injected into a lateral lobe of the prostate. The wound was closed with surgical metal clips in two layers, the muscle layer first and then the skin layer using stainless steel clips (autoclips: 9 mm; Clay Adams Inc., Parsippany, N.J.). […] Control groups received the vehicle alone. Taxol™ was given either ip or iv as indicated.
Primary tumors in the prostate were excised, measured, and weighed. When applicable, immunohistochemistry and H&E staining were conducted on one part of the tumor, fixed in formalin and embedded in paraffin or OCT compound (Miles Inc., Elkhart, Ind.); the later was rapidly frozen in liquid nitrogen, and stored at −70° C. Macroscopically enlarged regional lymph nodes were harvested and the presence of metastatic disease was confirmed by histology.
The in vivo data was analyzed using the Mann-Whitney U test.

The test system of data set [2] is PC-3 (human prostate carcinoma). Description: Prostate carcinoma model PC-3 in SCID mice.
Excerpt: • Species and strain: Mouse (Mus musculus); female SCID (MDA231 and OVCAR3), male SCID (PC-3, HCT116); male CD57 B16 mice (BL16-BL6) • Age: 6-8 weeks old. • Supplier: Charles River Laboratories, Inc., St-Constant, Quebec, Canada. • Acclimation: Mice were acclimated to laboratory conditions for approximately 1 week prior to tumor cell inoculation. • Identification: Mice were identified by ear punch combination. • Housing: Mice were housed in groups of 3-5 in a designated animal facility with a temperature of 22° C., a relative humidity of 40-50%, and a 12 hr light/dark cycle.
PC-3 (human prostate carcinoma). These cells were originally received from the ATCC. Early passage cells (tested free of mycoplasma) were grown to 60% confluence in DMEM medium supplemented with 10% fetal bovine serum, and antibiotics. Cell harvesting was performed using trypsin-EDTA solution.
Exponentially growing cells were harvested using trypsin-EDTA solution. […] Cell viability was confirmed by trypan blue staining. […] One to 2 millions cells suspended in 0.1 mL phosphate buffer solution was implanted into the mammary fat pad (MCF7) or subcutaneously into the axillary region of the right flank of recipient SCID mice. All animals were inoculated at the same site.
Mice were subjected to general examination on daily basis. […] Control groups received the vehicle alone. Chemotherapy drugs were also given by intraperitoneal route according to the schedule described below.
Primary tumor growth was monitored every second to fourth day using calipers. Relative tumor volume (cm^3) was determined by the formula:
Body weights were monitored every third to fifth day. Animals experiencing signs of discomfort were sacrificed immediately (in some cases they were replaced by spared mice). […] Mice were sacrificed by cervical dislocation and immediately subjected to full autopsy.
The test system of data set [3] is SKMEL-V+ cells. Description: Cell proliferation / survival, MTT assay, SKMEL-V+ cells. Particulars: 96 hours; for % cell survival: 6.25 μM to 100 μM. It is filed as cell-based, human. The method, then: Exponentially growing SKMEL-V+ cells (1×10^3) were seeded in 96-well plates in complete medium. […] Cell survival was evaluated 96 hours later using the MTT metabolic assay (Benlimame N, He Q, Jie S, et al. FAK signaling is critical for ErbB-2/ErbB-3 receptor cooperation for oncogenic transformation and invasion. J Cell Biol 2005; 171: 505-16).
On the technique in general: Tetrazolium dyes change colour on reduction, which living cells bring about.

The subject of data set [4] is APPswe/PS1dE9 mice. Description: Behavioral studies (maze, fear conditioning) in APPswe/PS1dE9 mice. It is filed as in vivo, mouse. As for the experimental part:
The experiments were performed at Pennington Biomedical Research Centre (PBRC) of Lousiana State University, Baton Rouge, Lousiana and were approved by the Institutional Animal Care and Use Committee (IACUC) of PBRC.
The APPswe/PS1dE9 mice were generated against a C57/BL6J background by breeding either +/+ males or females with −/− females or males, respectively.
Memantine (10 mg/kg) and both doses of QC-199 (15 mg/kg & 30 mg/kg) were prepared in batches and frozen for later use. Each compound was weighed and dissolved in injectable sterile saline solution. Memantine was prepared at a concentration of 1 mg/ml, the 15 mg/kg dose of QC-199 at a volume of 15 mg/10 ml, and the 30 mg/kg dose of QC-199 at a volume of 30 mg/10 ml. The compounds were prepared in this volume so that the mice could easily be injected based on their body weight, e.g., a 35 gram mouse was injected with 0.35 ml dosing solution.
Memantine and QC-199 dosing solutions were administered to mice via i.p. injections. The mice were weighed 3 times/week and were injected with a volume that matched their body weight. The mice were injected daily and the injection located was alternated each day to avoid potential complications from injection in the same location on a daily basis.
After reaching their respective treatment duration, the wild type and APP/PS1 double transgenic mice were run through the STM and fear conditioning. The STM consisted of one day of straight run training (running down an alley from the start box to the goal box). This phase was implemented to establish the contingency that moving forward would provide escape into the dark and dry goal box. The mice were required to reach a criterion of completing the straight run in 15 sec or less on 7 out of 9 trials over a maximum of 15 trials. […] The following day each mouse was administered 15 trials in the STM with approximately 7-10 min between each trial where they were placed into a holding cage with a towel. The latency to reach the goal box and the number of errors committed were the dependent measures of learning. However, in our experience, errors committed is much more indicative of learning and is reported for this project. Pictures of the straight run (A) and maze (B) are shown in FIG. 42, along with a schematic (C) of the maze indicating the correct path. The data from the maze was collapsed into blocks of 5 trials for data summary and presentation.
Med Associates Inc.'s MED-VFC-NIR-M NIR Video Fear Conditioning System for Mouse, Pavlovian fear conditioning was conducted after the STM. On Day 1 the mice were placed in Context 1 and given 5 tone+shock pairings. On day 2 the mice were placed back into Context 1 and their freezing response to being placed back into the original context where fear conditioning occurred was measured. Freezing is operationally defined as the cessation of all movement except that required for respiration. Freezing was measured over 10 minutes, and data were summarized in 1-min intervals. On day 3 the mice were placed into a novel context (Context 2) for 10 min. […] For the final 5 min, the tone paired with shock during fear conditioning was presented. Again, the data was summarized in 1-min intervals.
Maze data was analyzed by two-way ANOVAs to determine treatment group effects for both errors and run time after the data was collapsed into three 5 trial blocks. Planned comparisons of transgenic mice treated with saline with each of the drug treatments, memantine or QC-199 at 15 mg/kg/day and 30 mg/kg/day were conducted to evaluate group differences in the maze at each trial block and both tone and contextual fear conditioning tests. The critical a level was set at 0.05 for all statistical tests. The values in FIGS. 46A-46C represent the means±S.E.M. The data was analyzed using the SPSS statistical program version 11.0. […]

Setting [5] is: QC-56 30 mg/kg intraperitoneally daily for 12 days, Taxol 10 mg/kg i.p. 3 cycles.

Consider `CC(=O)O[C@H]1C(=O)[C@@]2(C)[C@H]([C@H](OC(=O)c3ccccc3)[C@]3(O)C[C@H](OC(=O)[C@H](O)[C@@H](NC(=O)c4ccccc4)c4ccccc4)C(C)=C1C3(C)C)[C@]1(OC(C)=O)CO[C@@H]1C[C@@H]2O` [Taxol™, paclitaxel, reference compound], for which, in data set [1] (setting [5]), the “inhibition of tumor growth” value was found to be 64% and the “reduction in microscopic lymph node metastases” value amounted to 82%. Moreover, the “reduction in microscopic lymph node metastases” value in data set [1] (QC-56 40 mg/kg daily for 24 days, Taxol 10 mg/kg, 4 cycles) turned out to be 47%. Besides, in data set [1] (QC-56 40 mg/kg daily for 24 days, Taxol 10 mg/kg, 4 cycles, 3 administrations per cycle), the “inhibition of tumor growth compared to untreated mice” value worked out at 45%. Moreover, the “Body Weights (g) d8 (mean + SE)” value in data set [2] (PC-3 mice, treatment day 8) is on record as 22.40 ± 7.92 g. Besides, the “Body Weights (g) d42 (mean + SE)” value in data set [2] (PC-3 mice, treatment day 42) is recorded as 17.70 ± 6.25 g. Also, in data set [2] (QC-56 60 mg/kg/ip, Taxol 10 mg/kg), the “inhibition of tumor growth compared to vehicle alone” value is given as roughly 28%.
Take `Cl.FC(F)(F)c1ccc(CCCCn2ccnc2)cc1` [QC-234, 1-[4-(4-(Trifluoromethyl)phenyl)butyl]-1H-imidazole hydrochloride]: the “% cell survival” value in data set [3] was “Dose dependent decrease in cell survival”.
Consider `OC(Cn1ccnc1)c1ccc(-c2ccc(Br)cc2)cc1` (racemic) [QC-304, (±)-1-(4′-bromo-biphenyl-4-yl)-2-imidazol-1-yl-ethanol], for which the “% cell survival” value in data set [3] was “no significant change in cell survival”. Also, the “potency in comparison with the other HO-1 inhibitors” value in data set [3] (6.25 μM) is listed as “most potent”.
In the case of `CC12CC3CC(C)(C1)CC(N)(C3)C2` [Memantine, reference compound], the “effect on maze errors and contextual fear conditioning (summary)” value in data set [4] (Memantine, QC-199 15 mg/kg and 30 mg/kg, dtg mice) is “positive effect”. For the same compound, the “maze errors vs saline-treated APP/PS1 mice” value in data set [4] (QC-199 15 mg/kg/day i.p., Memantine 10 mg/kg i.p., improved at Trial Blocks 2 and 3, not 1) was “improved maze”. Besides, the “contextual fear conditioning (freezing) vs saline-treated APP/PS1 mice” value in data set [4] (QC-199 15 and 30 mg/kg/day, Memantine 10 mg/kg, Time Blocks 1-4) is reported as “no significant differences”. For the same compound, the “tone fear conditioning (freezing) vs saline-treated APP/PS1 mice” value in data set [4] (QC-199 15 and 30 mg/kg/day, Memantine 10 mg/kg, Trial Blocks 3 and 4) is given as “no significant differences”.
